The nature of series [1]: Solubility in water (statement in formulation method).
For series [2], the system named is SARS-CoV-2 (IPBCAMS-YL01/2020). Kind of series: microbe, parasite or virus in culture. Conditions: Severe acute respiratory syndrome coronavirus 2, A549-ACE2, 48 h, read-out: IC50 (half maximal inhibitory concentration), SARS-CoV-2 IPBCAMS-YL01/2020.
Series [3] deals with SARS-CoV-2 (IPBCAMS-YL01/2020). Kind of series: Antiviral assay, bona fide SARS-CoV-2 in Huh7.5.1 cells. The format is cell-based. Conditions: IPBCAMS-YL01/2020, human liver Huh7.5.1 cells.
Series [4] addresses T1, HSP90AB1 (Homo sapiens, UniProt P08238).
T1 construct: HSP90AB1 protein was detected using a specific antibody after the A549 cells were treated with Cepharanthine; endogenous in cells; host or cells: A549
In kind it is cell-based.

Series [5] concerns EBOVΔVP30-GFP virus (strain Zaire Mayinga).
The subject of the next series is SARS-CoV-2 virus entry. Particulars: read-out: IC50, antiviral activity in virus entry inhibitor screen; cited from earlier work.
Series [6] concerns EBOVΔVP30-GFP virus (strain Zaire Mayinga). Kind of series: microbe, parasite or virus in culture. Particulars: Zaire ebolavirus, 72 h, read-out: IC50, EBOVΔVP30-GFP.
The test system of another series is SARS-CoV-2. Also noted: method as in PMID 32707573. Conditions: at 2.5 μM; cited from earlier work.
In series [7] the target is T1, HSP90AB1. Kind of series: biochemical. In kind it is binding.
A short description of series [8]: Cell viability assay (CellTiter-Glo), Huh7 cells. Conditions: human. A general note: Cellular ATP, detected with luciferase, serves as a proxy for viable cell number.
The test system of series [9] is SARS-CoV-2 (IPBCAMS-YL01/2020). Nature of the series: in vitro. Particulars: human.
Another series concerns ZIKV (MR766). Nature of the series: Antiviral assay, ZIKV in Huh7 cells (4G2 immunostaining, high-content imaging). Conditions: for SI (CC50/IC50), ZIKV: Huh7 cells; for IC50: Zika virus, Huh-7, 72 h, read-out: IC50, ZIKV.
Series [10] deals with SARS-CoV-2 (IPBCAMS-YL01/2020). Also noted: species or system hACE2 transgenic mice. Particulars: mouse, in vivo.
Series [11] in a line: in vitro. Particulars: human.
Series [12] is described as follows: in vitro. Conditions: human. This is another data set of the same source.
The target of the next series is (GGCT). Also on record: method as in IUPHAR/BPS Guide to PHARMACOLOGY, pubmed_id 17260973. Particulars: assay_description: pKa= 9.71, ref IUPHAR/BPS Guide to PHARMACOLOGY, pubmed_id 17260973, cited from earlier work.
In another series the target is TUBB (Homo sapiens, UniProt P07437). Nature of the series: Cellular thermal shift assay (CETSA) in A549 cells, TUBB. In kind it is cell-based.
Series [13] has as its system TUBB cytoskeletal networks. Nature of the series: Immunofluorescence of the TUBB-containing cytoskeleton in Caco-2 cells. In kind it is cell-based, human. Conditions: 0.5 µM, 6 h.
Series [14] has as its system SARS-CoV-2 RNA interacting human proteins. Also on record: ACT_VALUE, ACT_TYPE ID50: unit not given here. Particulars: cited from earlier work.
The test system of series [15] is heat shock protein 90 alpha family class B member 1 (HSP90AB1). Also noted: method as in earlier work. Conditions: ref IUPHAR/BPS Guide to PHARMACOLOGY (geldanamycin pubmed_id 24984936), cited from earlier work; for IC50: read-out: original_affinity_median_nm (IC50).
Series [16] deals with aldehyde dehydrogenase 2 family member (ALDH2). Also noted: method as in IUPHAR/BPS Guide to PHARMACOLOGY, pubmed_id 18613661. Particulars: In vitro inhibition of recombinant human mitochondrial aldehyde dehydrogenase, ref IUPHAR/BPS Guide to PHARMACOLOGY, pubmed_id 18613661, cited from earlier work.
For series [17], the system named is isocitrate dehydrogenase (NADP(+)) 2 (IDH2). Also on record: method as in IUPHAR/BPS Guide to PHARMACOLOGY, pubmed_id 32071674. Conditions: ref IUPHAR/BPS Guide to PHARMACOLOGY, pubmed_id 32071674; cited from earlier work.
Setting [18] is: read-out: original_affinity_median_nm (Ki).

Entries after “also recorded” stand apart in the source; their conditions may differ. Some results are limits rather than exact numbers.

T1 sequence (P08238 whole entry): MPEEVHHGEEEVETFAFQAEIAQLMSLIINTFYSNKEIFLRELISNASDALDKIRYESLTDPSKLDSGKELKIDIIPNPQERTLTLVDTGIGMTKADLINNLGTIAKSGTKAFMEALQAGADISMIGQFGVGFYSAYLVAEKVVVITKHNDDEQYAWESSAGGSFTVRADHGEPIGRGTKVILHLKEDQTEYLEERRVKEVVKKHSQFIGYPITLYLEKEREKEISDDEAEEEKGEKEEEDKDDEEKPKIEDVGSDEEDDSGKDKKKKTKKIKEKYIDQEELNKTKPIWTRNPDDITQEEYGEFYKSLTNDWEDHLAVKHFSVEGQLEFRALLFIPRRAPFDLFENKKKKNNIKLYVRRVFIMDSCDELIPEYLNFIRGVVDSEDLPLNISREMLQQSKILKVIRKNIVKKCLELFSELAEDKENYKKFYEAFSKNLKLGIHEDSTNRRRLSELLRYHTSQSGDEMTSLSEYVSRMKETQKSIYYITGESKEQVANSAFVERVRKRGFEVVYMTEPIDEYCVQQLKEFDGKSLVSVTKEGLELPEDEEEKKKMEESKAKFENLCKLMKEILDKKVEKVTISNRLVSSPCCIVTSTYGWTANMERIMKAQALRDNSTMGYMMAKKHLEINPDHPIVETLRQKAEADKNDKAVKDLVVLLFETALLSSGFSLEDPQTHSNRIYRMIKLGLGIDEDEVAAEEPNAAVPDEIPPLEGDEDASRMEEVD
TUBB, sequence (P07437 whole entry): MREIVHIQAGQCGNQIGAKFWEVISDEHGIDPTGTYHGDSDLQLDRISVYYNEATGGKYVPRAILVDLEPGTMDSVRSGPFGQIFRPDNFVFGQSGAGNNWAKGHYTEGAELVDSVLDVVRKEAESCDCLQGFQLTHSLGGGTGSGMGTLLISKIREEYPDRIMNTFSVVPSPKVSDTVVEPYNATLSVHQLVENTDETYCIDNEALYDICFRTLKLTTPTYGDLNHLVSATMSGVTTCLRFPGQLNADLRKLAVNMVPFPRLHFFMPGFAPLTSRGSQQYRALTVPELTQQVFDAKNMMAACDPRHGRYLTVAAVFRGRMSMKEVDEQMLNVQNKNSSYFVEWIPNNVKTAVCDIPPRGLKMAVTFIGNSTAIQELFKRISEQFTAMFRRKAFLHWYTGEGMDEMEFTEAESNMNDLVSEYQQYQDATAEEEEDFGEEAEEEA
TUBB, sequence (P68363 whole entry, further chain): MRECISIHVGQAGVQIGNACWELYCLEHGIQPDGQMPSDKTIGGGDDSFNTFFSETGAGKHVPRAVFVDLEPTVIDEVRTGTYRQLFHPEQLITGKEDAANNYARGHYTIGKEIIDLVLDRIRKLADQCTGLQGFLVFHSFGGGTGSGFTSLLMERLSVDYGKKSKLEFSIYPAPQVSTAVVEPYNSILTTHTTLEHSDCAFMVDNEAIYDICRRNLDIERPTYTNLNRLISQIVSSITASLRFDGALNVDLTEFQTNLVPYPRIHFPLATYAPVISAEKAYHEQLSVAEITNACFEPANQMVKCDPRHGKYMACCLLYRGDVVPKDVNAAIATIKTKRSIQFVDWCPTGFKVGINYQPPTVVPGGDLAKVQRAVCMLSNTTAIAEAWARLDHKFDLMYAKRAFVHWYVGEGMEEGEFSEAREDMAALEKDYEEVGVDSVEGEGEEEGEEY

As for `COc1ccc2cc1Oc1ccc(cc1)C[C@H]1c3c(cc4c(c3Oc3cc5c(cc3OC)CCN(C)[C@@H]5C2)OCO4)CCN1C` [Cepharanthine], in series [1], the Solubility in water entry is given as “insoluble in water”. Besides, the IC50 in [2] stood at 1670 nM. Further, the “Antiviral effect against SARS-CoV-2 in Huh7.5.1 cells (in words)” value in series [3] is listed as “confirmed”. Further, the “CETSA target engagement, HSP90AB1” value on HSP90AB1 [4] is reported as “targeted HSP90AB1; also recorded: bound to HSP90AB1 in cells”. In addition, in [5], the “SI (CC50/IC50), EBOVΔVP30-GFP” value is recorded as 12.10. Moreover, in the series with SARS-CoV-2 virus entry, the IC50 was 1400 nM. Also, in series [6], the IC50 is 420 nM. Besides, the inhibition ratio in the series on SARS-CoV-2 is given as > 40%. The compound further came in with a Kd on HSP90AB1 [7] of 3500 nM. For the same compound, in series [8], the CC50 at 72 h is 24000 nM. The selectivity ratio in series [9] stood at 18.5. Further, in the series with ZIKV (MR766), the “SI (CC50/IC50), ZIKV” value turned out to be 10.97 and the IC50 came out at 2190 nM. Also, in series [10], the “Viral loads in the lungs vs vehicle group at 3 dpi (qPCR)” value is on record as “no obvious differences” and the “Viral loads in the lungs vs vehicle group at 5 dpi (qPCR)” value is “significant reduction”. Further, in [10] (10 mg/kg), the “Expression level of IL6 in lung vs vehicle group” value is listed as “reduced”; the “Expression level of TNF in lung vs vehicle group” value is given as “reduced”; the “Lung injury and inflammation (H&E staining)” value was “the extent of damage was much relieved in lung tissue”.
Take `COc1cc2c(cc1OC)[C@@H]1C(=O)c3ccc4c(c3O[C@@H]1CO2)C=CC(C)(C)O4` [Deguelin]: the CC50 in the series “in vitro [11]” was found to be 34700 nM.
In the case of `CC(C)(O)CNc1nc(Nc2ccnc(C(F)(F)F)c2)nc(-c2cccc(C(F)(F)F)n2)n1` [Enasidenib, 2-Methyl-1-(4-(6-(trifluoromethyl)pyridin-2-yl)-6-(2-(trifluoromethyl)pyridin-4-ylamino)-1,3,5-triazin-2-ylamino)propan-2-ol], the IC50 was found to be 28000 nM in [2] and 13500 nM in the series with ZIKV (MR766). Besides, in “in vitro [12]”, the CC50 was 24900 nM. Further, in [9], the selectivity ratio came to 1.17.
`COP(=O)(CCC(N)C(=O)O)Oc1cccc(CC(=O)O)c1` (stereo not drawn) [GGsTop]: the “affinity_median (pKi)” value at (GGCT) is listed as 3.77. Besides, the Ki on (GGCT) (setting [18]) is 170000 nM.
In the case of `COC(=O)[C@H]1[C@@H](O)[C@@]2(O)c3c(OC)cc(O[C@@H]4O[C@@H]([C@H](O)CO)CO[C@H]4OC)cc3O[C@@]2(c2ccc(OC)cc2)[C@@H]1c1ccccc1` [Silvestrol], the “SI (CC50/IC50), EBOVΔVP30-GFP” value in series [5] was determined as 0.50. Moreover, the IC50 in series [6] was determined as 20 nM; in the series with ZIKV (MR766) it was 10 nM.
In the series “in vitro [11]”, `CNC(=O)c1cc(Oc2ccc(NC(=O)Nc3ccc(Cl)c(C(F)(F)F)c3)cc2)ccn1` [Sorafenib] gave a CC50 of 12900 nM.
Turning to `CN1CCN(CCCN2c3ccccc3Sc3ccc(C(F)(F)F)cc32)CC1` [Trifluoperazine], on TUBB, the “CETSA, thermal stability of TUBB” value is given as “slightly affected the thermal stability of TUBB”. The “Architecture of the TUBB cytoskeletal networks (immunofluorescence)” value in [13] was “architecture of the TUBB cytoskeletal networks was disrupted”. Moreover, the IC50 worked out at 3460 nM in series [2], 1790 nM in [6] and 960 nM with ZIKV (MR766). In series [3], the “Antiviral effect against SARS-CoV-2 in Huh7.5.1 cells (in words)” value was “confirmed”. Also, the “SI (CC50/IC50), EBOVΔVP30-GFP” value in series [5] amounted to 2.18. In addition, the CC50 at 72 h in series [8] came to 7790 nM. Further, the selectivity ratio in series [9] was determined as 10.7. In the series on ZIKV (MR766), the “SI (CC50/IC50), ZIKV” value turned out to be 8.11.
On to `CC(=O)O[C@@]12CO[C@@H]1C[C@H](O)[C@@]1(C)C(=O)[C@H](O)C3=C(C)[C@@H](OC(=O)[C@H](O)[C@@H](NC(=O)OC(C)(C)C)c4ccccc4)C[C@@](O)([C@@H](OC(=O)c4ccccc4)[C@H]21)C3(C)C` [docetaxel], for which the “ACT_VALUE, ACT_TYPE ID50” value in series [14] is given as 6.699.
Turning to `C=C1C[C@@H]2CC[C@@]34C[C@H]5O[C@H]6[C@@H](O3)[C@H]3O[C@H](CC[C@@H]3O[C@H]6[C@H]5O4)CC(=O)C[C@@H]3[C@@H](OC)[C@@H](C[C@H](O)CN)O[C@H]3C[C@H]3O[C@@H](CC[C@@H]1O2)C[C@@H](C)C3=C` [eribulin], the “ACT_VALUE, ACT_TYPE IC50” value in [14] is 8.23.
Regarding `COC1=C2C[C@@H](C)C[C@H](OC)[C@H](O)[C@@H](C)/C=C(\C)[C@H](OC(N)=O)[C@@H](OC)/C=C\C=C(/C)C(=O)NC(=CC1=O)C2=O` [geldanamycin], in [15], the “affinity_median (pIC50)” value was 6.55 and the IC50 is 282 nM.
As for `CCNC(=O)c1noc(-c2cc(C(C)C)c(O)cc2O)c1-c1ccc(CN2CCOCC2)cc1` [luminespib], in series [15], the “affinity_median (pIC50)” value is reported as 8.7 and the IC50 is 2 nM.
As for `CC(=O)O[C@H]1C(=O)[C@@]2(C)[C@H]([C@H](OC(=O)c3ccccc3)[C@]3(O)C[C@H](OC(=O)[C@H](O)[C@@H](NC(=O)c4ccccc4)c4ccccc4)C(C)=C1C3(C)C)[C@]1(OC(C)=O)CO[C@@H]1C[C@@H]2O` [paclitaxel], the “ACT_VALUE, ACT_TYPE EC50” value in series [14] was 8.05.
For the compound `COc1cc([C@@H]2c3cc4c(cc3[C@H](O)[C@H]3COC(=O)[C@H]23)OCO4)cc(OC)c1OC` [podophyllotoxin], in series [14], the “ACT_VALUE, ACT_TYPE IC50” value was 6.
In the case of `COc1cc(O)c2c(=O)c(-c3ccc(O)cc3)coc2c1` [prunetin], in series [16], the “affinity_median (pKi)” value was 6.35. Also, the Ki in series [16] (setting [18]) is 450 nM.
On to `CC[C@]1(O)C[C@@H]2CN(CCc3c([nH]c4ccccc34)[C@@](C(=O)OC)(c3cc4c(cc3OC)N(C)[C@H]3[C@@](O)(C(=O)OC)[C@H](OC(C)=O)[C@]5(CC)C=CCN6CC[C@]43[C@@H]65)C2)C1` [vinblastine], for which the “ACT_VALUE, ACT_TYPE IC50” value in [14] is on record as 9.
For `C[C@@H](Nc1nc(N[C@H](C)C(F)(F)F)nc(-c2cccc(Cl)n2)n1)C(F)(F)F` [vorasidenib], in series [17], the “assay_description (result in words)” value is “Inhibits mutant IDH2”.

As usually defined, the Kd is the free concentration of one partner at which half of the binding sites on the other are occupied at equilibrium, for simple one-to-one binding. The term Ki denotes the dissociation constant of the complex between target and ligand, obtained from inhibition or displacement.

The record behind these values is publication PMC8566969, “Comparison of viral RNA–host protein interactomes across pathogenic RNA viruses informs rapid antiviral drug discovery for SARS-CoV-2” (Cell Research, 2021).
